Data as given in article PMC4908816 (Molecular microbiology, 2016).
Values joined by “and” are separate entries in the source; they are usually repeats but may differ in a detail not shown here. Identical values can stand only once.

How the values were obtained:
TrwD [1] = target: T1, TrwD (Escherichia coli, UniProt O50338); assay: ATP hydrolysis assay; format: biochemical, conjugative plasmid R388; conditions: for K0.5 ATP of TrwD in the presence of fatty acid / mechanism of inhibition of TrwD ATP hydrolysis: 21 μM linoleic acid or 30 μM 2-HDA; for K0.5 ATP of TrwD in the presence of fatty acid: 44 μM in the absence of fatty acids; for mechanism of inhibition of TrwD ATP hydrolysis: increasing ATP; for effect on Vmax of TrwD ATP hydrolysis: compound at its Ki[app] (21 μM linoleic acid, 30 μM 2-HDA); for inhibition (reduction) of TrwD ATPase activity: 50 μM fatty acid
TrwB = TrwB (Escherichia coli, UniProt Q04230); assay: ATP hydrolysis assay; format: biochemical, conjugative plasmid R388; conditions: 50 μM linoleic acid; ATPase 2 μM
TrwC = assay: ATP hydrolysis assay; format: biochemical, conjugative plasmid R388; conditions: 50 μM linoleic acid; ATPase 2 μM
TrwK = TrwK (Escherichia coli, UniProt O50330); assay: ATP hydrolysis assay; format: biochemical, conjugative plasmid R388; conditions: 50 μM linoleic acid; ATPase 2 μM
[2] = system: R388-mediated conjugation; conditions: cited from earlier work; for inhibition of bacterial conjugation in vivo assays: ref Fernández-Lopez et al., 2005; for inhibition of bacterial conjugation: ref Getino et al., 2015
TrwD [3] = target: T1, TrwD; assay: Partial proteolysis of TrwD by papain; set-up: species or system conjugative plasmid R388; conditions: 1:10 to 1:100 TrwD:2-HDA or 1:100 TrwD:palmitic acid molar ratio; 90 min, 25 °C
[4] = system: R388 transfer (bacterial conjugation); assay: High-throughput conjugation assay; format: cell-based; conditions: 500 μM compound (Fig. 3A), E. coli DH5α donor, BL21(DE3) recipient

T1 sequence (O50338 1-358): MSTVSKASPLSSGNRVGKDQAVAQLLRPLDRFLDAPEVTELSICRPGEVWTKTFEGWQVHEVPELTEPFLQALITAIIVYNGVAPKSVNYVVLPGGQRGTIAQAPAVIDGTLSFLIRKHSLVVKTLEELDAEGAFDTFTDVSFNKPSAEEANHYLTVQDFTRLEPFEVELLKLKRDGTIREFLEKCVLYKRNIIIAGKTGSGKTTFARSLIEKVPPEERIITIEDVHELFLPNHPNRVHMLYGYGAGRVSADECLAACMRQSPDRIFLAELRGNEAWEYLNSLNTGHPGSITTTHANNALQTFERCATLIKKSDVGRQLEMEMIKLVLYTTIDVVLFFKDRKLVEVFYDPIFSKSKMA

Row | SMILES | Ki (TrwD [1]) | inhibition of bacterial conjugation in vivo assays [2] | inhibition (reduction) of TrwD ATPase activity (TrwD [1]; TrwD 2 μM) | inhibition of bacterial conjugation [2] | also measured
1 | CCCCC/C=C\C/C=C\CCCCCCCC(=O)O [linoleic acid] | 20.9 ± 1.6 µM | effective inhibitors of bacterial conjugation |  |  | K0.5 ATP of TrwD in the presence of fatty acid (TrwD [1]; TrwD 2 μM): 44 µM; mechanism of inhibition of TrwD ATP hydrolysis (TrwD [1]): non-competitive; effect on Vmax of TrwD ATP hydrolysis (TrwD [1]): reduced by half; effect on TrwB ATPase activity (TrwB): no significant effect; effect on TrwC ATPase activity (TrwC): no significant effect; effect on TrwK ATPase activity (TrwK): no significant effect
2 | CCCCCCCCCCCCCCCC(=O)O [Palmitic acid] |  | unable to inhibit significantly | no inhibition was observed |  | susceptibility of TrwD to papain digestion (TrwD [3]): did not affect the susceptibility
3 | CCCCCCCCCC#CCCC#CC(=O)O [2,6-HDA, 2,6 hexadecadiynoic acid] | 43.8 ± 2.8 µM |  |  | more effective in inhibiting bacterial conjugation | inhibition of bacterial conjugation [4]: efficient conjugation inhibitors
4 | CCCCCCCC/C=C\CCCCCCCC(=O)O [oleic acid] |  | effective inhibitors of bacterial conjugation | more than 90% |  | 
5 | CCCCCCCCCCCCCC#CC(=O)O [2-HDA, 2-hexadecynoic acid] | 29.7 ± 2.1 µM |  |  | more effective in inhibiting bacterial conjugation | K0.5 ATP of TrwD in the presence of fatty acid (TrwD [1]; TrwD 2 μM): 66 µM; mechanism of inhibition of TrwD ATP hydrolysis (TrwD [1]): non-competitive; Kd ADP of TrwD in the presence of fatty acid (TrwD [1]; 30 μM 2-HDA, TrwD 2 μM, control without 2-HDA 45.1 ± 4.1 μM): 51 µM and 51.7 ± 9.8 µM; effect on Vmax of TrwD ATP hydrolysis (TrwD [1]): reduced by half; susceptibility of TrwD to papain digestion (TrwD [3]): high susceptibility to papain degradation
6 | CCCCCCCCCCCC(=O)O [Lauric acid] |  | unable to inhibit significantly | no inhibition was observed |  | 
7 | CCCCCCCCCCCCCCCC#CC(=O)O [2-ODA, 2-octadecynoic acid] | 29.8 ± 4.1 µM |  |  | more effective in inhibiting bacterial conjugation | inhibition of bacterial conjugation [4]: efficient conjugation inhibitors
